The assay deals with SPR (Homo sapiens, UniProt P35270). The assay is described as follows: Cellular SPR activity: BH2 formation from sepiapterin in the presence of methotrexate, human cell lines. In kind it is cell-based. Also on record: endogenous in cells; host or cells: HaCaT, Jurkat, BeWo, SKNMC, CX-1.

One may read the IC50 as the concentration that inhibits the measured activity by half.

Each structure is given as a SMILES string. Read-outs that look alike come from different tables or passages of the source.

Sequence of SPR (P35270 whole entry): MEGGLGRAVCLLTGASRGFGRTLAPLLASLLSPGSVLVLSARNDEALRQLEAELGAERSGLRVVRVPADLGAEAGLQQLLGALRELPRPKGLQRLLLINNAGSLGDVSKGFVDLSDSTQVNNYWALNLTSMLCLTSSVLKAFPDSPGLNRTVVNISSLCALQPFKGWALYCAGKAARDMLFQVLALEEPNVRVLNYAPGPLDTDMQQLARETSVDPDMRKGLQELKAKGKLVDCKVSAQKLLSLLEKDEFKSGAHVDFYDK

Turning to `CC[PH](CC)(CC)[Au][S][C@@H]1O[C@H](COC(C)=O)[C@@H](OC(C)=O)[C@H](OC(C)=O)[C@H]1OC(C)=O` [auranofin, 2,3,4,6-tetra-O-acetyl-1-thio-β-D-glucopyranosato-S-triethyl phosphine gold], the IC50 (BeWo (human choriocarcinoma), with methotrexate, read-out: SPR IC50, BeWo cells) was 8.9 ± 0.64 µM; the IC50 (CX-1 (human colon adenocarcinoma), with methotrexate, read-out: SPR IC50, CX-1 cells) came to 25.1 ± 1.03 µM; the IC50 (HaCaT (human keratinocytes), with MTX 1 μM, auranofin 2 h, then 200 μM sepiapterin 3 h, listed as Auranofin, read-out: SPR IC50, HaCaT cells) was 10.7 µM; the IC50 (HaCaT (human keratinocytes), with MTX 1 μM, auranofin 2 h, then 200 μM sepiapterin 3 h, read-out: SPR IC50, HaCaT cells) amounted to 10.7 ± 0.9 µM; the IC50 (Jurkat (human leukemia), with methotrexate, read-out: SPR IC50, Jurkat cells) was determined as 7.2 ± 0.17 µM; the IC50 (SKNMC (human neuroblastoma), with methotrexate, read-out: SPR IC50, SKNMC cells) is 17.7 ± 1.54 µM. Also, the “time of pretreatment to maximum inhibition of cellular SPR” value (HaCaT cells with methotrexate, 20 μM auranofin) is given as 2 h.

Values taken from paper PMC13249053, “Mechanism of auranofin toxicity: Inhibition of tetrahydrobiopterin metabolism” (Toxicology and applied pharmacology, 2025).
